Source: patent publication US20040006004A1, “Method for prevention and treatment of diseases or disorders related to excessive formation of vascular tissue or blood vessels” (priority 2002, published 2004)

Tested on: NPY Y2 receptor
Assay: Hyperoxia/ischemia-induced retinal neovascularization (retinopathy) in newborn rats, fluorescent dextran flat-mount vessel count
Type: in vivo, rat (Sprague Dawley)
Settings: for Retinal capillary vessel formation in fluorescein images: fluorescence microscopy of flat-mounted retinas, FIG. 3; for Quantitated neovascularization (amount of retinal vessels crossed by a constant length line), Mean ± SD / Quantitated neovascularization, Range: newborn rats, intraperitoneal treatment, retinas at age of 20 days; for Quantitated neovascularization (amount of retinal vessels crossed by a constant length line), Mean ± SD: cyclic hyperoxia 40%/80%; for Quantitated neovascularization, Range: cyclic hyperoxia; for Development of retinopathy: treated groups of rat puppies
Description: The present study was undertaken to determine the impact of NPY Y2 receptor targeted intervention on neovascularization and development of retinopathy. Development of retinopathy was induced to newborn rats by cyclic hyperoxia and following relative ischemia-induced retinal neovascularization. Hyperoxemia is toxic to developing retinal vessels causing damage and hypoxia in the retina. After moving to normal air, relative hypoxia follows further promoting neovascularization of the retina.
Three groups of rat puppies were subjected for different treatments; 1) vehicle, 2) NPY Y2 receptor targeted antisense oligonucleotide sequence, and 3) scramble oligonucleotide sequence containing the same oligonucleotides as NPY Y2 receptor targeted antisense oligonucleotide sequence. The treatments were administered intraperitoneally. The retinal vessels were investigated and retinopathic changes were compared between treatment groups.
Retinopathy was assessed after injection of fluorescent-labelled dextran to the circulation. The eyes were flat-mounted on slides and the retinal vessels were visualized and investigated by fluorescence microscopy. Statistical differences were calculated between the study groups.
Study protocol was approved by the Joint Ethics Committee of Turku University. Development of retinopathy was induced to newborn rats (Sprague Dawley) by cyclic hyperoxia and following relative ischemia. Hyperoxia is toxic to developing retinal vessels causing damage and hypoxia in the retina, which induces neovascularization. After moving to normal air, relative hypoxia follows further promoting neovascularization of the retina. Hypoxia is one of the major causes of retinal neovascularization in human retinopathies also. The newborn rats were kept in a hyperoxic incubator with their mothers. Retinal neovascularization was induced simultaneously for all three groups of puppies. One treatment group consisted originally of 7 puppies, which underwent cyclic hyperoxia at the age of 3 days, continued until at the age of 14 days and remained in normal room air from the age of 14 to 17 days. The amount of oxygen inside the incubator was kept at 40% and 80% in 12 hour cycles for 10 days (days from 3 to 13).
The three groups of puppies were subjected for different treatments; 1) plain vehicle, 2) NPY Y2 receptor targeted antisense oligodeoxynucleotide sequence (5′-CCTCTGCACCTAATGGGCCC-3′ (SEQ ID NO:4), containing 20 thioate modified bases) diluted in vehicle and 3) scramble oligodeoxynucleotide sequence containing the same deoxynucleotides as NPY Y2 receptor targeted antisense oligodeoxynucleotide sequence but in a random order (5′-CCATGGTAATCCGCCGCTCC-3′ (SEQ ID NO:5), containing 20 thioate modified bases) diluted in vehicle. The treatments were administered intraperitoneally. The retinal vessels were investigated and retinopathic changes were compared between treatment groups. The used NPY Y2 receptor targeted antisense deoxynucleotide sequence was designed complementary to next 20 bases from NPY Y2 gene transcription initiation codon (ATG).
At the age of 20 days, rats were decapitated and eyes were collected. Retinopathy and retinal neovascularization was assessed after an injection of fluorescent-labelled dextran to the circulation trough heart puncture. One eye from each puppy was used for visualization of retinal vessels. The eyes were flat-mounted on slides and the retinal vessels were visualized and investigated by fluorescence microscopy. Pictures of retinas were acquired using a Leica DMR/DC 100 microscope and Leica DC Wiever software.
The amount of retinal capillaries was analyzed by counting the amount of vessels crossed by a constant length line using plot profile analysis (Image-J 2.6 program). Each retina was analyzed in 3-5 representative areas and the mean values were used for further statistical analysis. Only unfolded retinal preparations were used in order to avoid artificial images of neovascularization. […]

[1] = post hoc analysis, less neovascularization

Substance | Retinal capillary vessel formation in fluorescein images | Quantitated neovascularization (amount of retinal vessels crossed by a constant length line), Mean ± SD | Quantitated neovascularization, Range | Difference in retinal neovascularization versus vehicle treatment group (post hoc analysis) | Development of retinopathy | 95% confidence interval for the difference compared to scramble treatment group (post hoc analysis) | 95% confidence interval for the difference compared to vehicle treatment group (post hoc analysis) | Mean difference in neovascularization compared to scramble treatment group [1] | Mean difference in neovascularization compared to vehicle treatment group [1]
5′-CCATGGTAATCCGCCGCTCC-3′ (CCATGGTAATCCGCCGCTCC; DNA, all phosphorothioate, methylation of C not given here) [Scramble, reference compound] | irregular and disrupted | 31.12 ± 0.93 | 30.33-32.25 | no difference | evident |  |  |  | 
5′-CCTCTGCACCTAATGGGCCC-3′ (antisense CCTCTGCACCTAATGGGCCC; DNA, all phosphorothioate, methylation of C not given here) [Y2-antisense, NPY Y2 receptor targeted antisense oligodeoxynucleotide, complementary to rat NPY Y2 mRNA, next 20 bases from initiation codon] | regular and continuous | 24.58 ± 0.84 | 23.75-25.75 |  | prevented | 3.76-9.31 | 2.48-8.33 | 6.53 | 5.40
